Assays:
GAK (Melanoma) = experiment: Bliss excess, mean over the matrix (fraction); higher = more synergy
In short: (§1)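 Bliss excess equals the observed combination effect minus the expected value EA + EB − EA·EB, where EA and EB are the effects of each agent alone. Combination Emax is the second-highest inhibition within the matrix. Inhibition was scaled from CellTiter-Glo 2.0 luminescence, with 0 set by vehicle wells and 1 by blank wells, after 72 hours of two-drug dosing of cells plated in 1536-well plates.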

[1] = system: CPC-N (Small Cell Lung Carcinoma); experiment: as above
In short: as §1

[2] = system: BxPC-3 (Pancreatic Carcinoma); experiment: as above
In short: as §1

[3] = system: SNU-423 (Hepatocellular Carcinoma); experiment: as above
In short: as §1

[4] = system: IA-LM (Non-Small Cell Lung Carcinoma); experiment: as above
In short: as §1

[5] = system: NCI-H3118 (Head and Neck Carcinoma); experiment: as above
In short: as §1

ES6 (Ewing's Sarcoma) = experiment: as above
In short: as §1

[6] = system: SKG-IIIa (Cervical Carcinoma); experiment: as above
In short: as §1

[7] = system: LS-1034 (Colorectal Carcinoma); experiment: as above
In short: as §1

IST-MEL1 (Melanoma) = experiment: as above
In short: as §1

[8] = system: RCC-JW (Kidney Carcinoma); experiment: as above
In short: as §1

[9] = system: T84 (Colorectal Carcinoma); experiment: as above
In short: as §1

[10] = system: MS-1 (Small Cell Lung Carcinoma); experiment: as above
In short: as §1

KALS-1 (Glioblastoma) = experiment: as above
In short: as §1

[11] = system: CPC-N (Small Cell Lung Carcinoma); experiment: combination Emax (second highest fraction inhibited in the dose matrix, 72 h); higher = more inhibition; extreme values may be limits of the assay
In short: as §1

[12] = system: SCC-4 (Oral Cavity Carcinoma); experiment: as above
In short: as §1

[13] = system: LS-1034 (Colorectal Carcinoma); experiment: as above
In short: as §1

SK-N-SH (Neuroblastoma) = experiment: as above
In short: as §1

[14] = system: SK-CO-1 (Colorectal Carcinoma); experiment: as above
In short: as §1

NCI-H226 (Mesothelioma) = experiment: as above
In short: as §1

Structure (SMILES) | Bliss excess (GAK (Melanoma)) | Bliss excess [1] | Bliss excess [2] | Bliss excess [3] | Bliss excess [4] | Bliss excess [5] | Bliss excess (ES6 (Ewing's Sarcoma)) | Bliss excess [6] | Bliss excess [7] | Bliss excess (IST-MEL1 (Melanoma)) | Bliss excess [8] | Bliss excess [9] | Bliss excess [10] | Bliss excess (KALS-1 (Glioblastoma)) | combination Emax [11] | combination Emax [12] | combination Emax [13] | combination Emax (SK-N-SH (Neuroblastoma)) | combination Emax [14] | combination Emax (NCI-H226 (Mesothelioma))
C[C@@H](Nc1cc(F)cc(F)c1)c1cc(C(=O)N(C)C)cc2c(=O)cc(N3CCOCC3)oc12 [AZD8186] + C1CN(CCC1(C(=O)N[C@@H](CCO)C2=CC=C(C=C2)Cl)N)C3=NC=NC4=C3C=CN4 [AZD5363] (first compound max 10 µM, 7x7, partner max 10 µM) | -0.0303 | -0.0478 | -0.0731 | -0.0692 | 0.001 | -0.022 | -0.0213 | -0.0225 | -0.0177 | -0.013 | 0.0563 | -0.0085 | -0.0446 | -0.0397 | 0.33 | 0.383 | 0.294 | 0.364 | 0.725 | 0.295
C[C@@H](Nc1cc(F)cc(F)c1)c1cc(C(=O)N(C)C)cc2c(=O)cc(N3CCOCC3)oc12 [AZD8186] + CC(=O)c1c(C)c2cnc(Nc3ccc(N4CCNCC4)cn3)nc2n(C2CCCC2)c1=O [Palbociclib] (first compound max 10 µM, 7x7, partner max 10 µM) | 0.0192 | -0.0198 | -0.0127 | 0.0188 | 0.0122 | 0.0284 | -0.0155 | -0.0661 | 0.0015 | 0.165 | 0.0622 | -0.0468 | -0.0484 | 0.0114 | 0.262 | 0.327 | 0.438 | 0.492 | 0.749 | 0.297
C[C@@H](Oc1cc(-c2cnn(C3CCNCC3)c2)cnc1N)c1c(Cl)ccc(F)c1Cl [Crizotinib] + CC1=C(C(=CC=C1)Cl)NC(=O)C2=CN=C(S2)NC3=CC(=NC(=N3)C)N4CCN(CC4)CCO [Dasatinib] (first compound max 10 µM, 7x7, partner max 2 µM) | -0.0786 | -0.0989 | 0.035 | -0.0038 | -0.0154 | 0.0187 | -0.0119 | 0.0166 | -0.0512 | 0.0781 | -0.065 | 0.0051 | -0.118 | 0.0652 | 0.584 | 0.913 | 0.835 | 0.859 | 0.954 | 0.558
C[C@@H](Oc1cc(-c2cnn(C3CCNCC3)c2)cnc1N)c1c(Cl)ccc(F)c1Cl [Crizotinib] + Cn1cnc2c(F)c(Nc3ccc(Br)cc3Cl)c(C(=O)NOCCO)cc21 [Selumetinib] (first compound max 10 µM, 7x7, partner max 10 µM) | -0.0473 | -0.0663 | -0.0323 | -0.0459 | -0.0463 | -0.0222 | -0.0552 | -0.0048 | -0.0843 | 0.0273 | -0.0432 | -0.0143 | -0.0926 | -0.005 | 0.62 | 0.496 | 0.79 | 0.854 | 0.989 | 0.393
CS(=O)(=O)CCNCc1ccc(-c2ccc3ncnc(Nc4ccc(OCc5cccc(F)c5)c(Cl)c4)c3c2)o1 [Lapatinib] + Cn1cnc2c(F)c(Nc3ccc(Br)cc3Cl)c(C(=O)NOCCO)cc21 [Selumetinib] (first compound max 10 µM, 7x7, partner max 10 µM) | -0.0769 | -0.0085 | 0.0703 | -0.0083 | -0.0659 | 0.0206 | -0.0159 | 0.001 | -0.0089 | 0.0279 | -0.0525 | 0.058 | -0.0277 | 0.0025 | 0.251 | 0.557 | 0.727 | 0.398 | 0.886 | 0.228
CS(=O)(=O)CCNCc1ccc(-c2ccc3ncnc(Nc4ccc(OCc5cccc(F)c5)c(Cl)c4)c3c2)o1 [Lapatinib] + NC1(c2ccc(-c3nc4ccn5c(=O)[nH]nc5c4cc3-c3ccccc3)cc2)CCC1 [MK-2206] (first compound max 10 µM, 7x7, partner max 10 µM) | 0.0347 | -0.0202 | 0.0263 | 0.0232 | -0.0179 | 0.0618 | -0.0408 | 0.0359 | 0.0301 | 0.0095 | -0.0285 | 0.0453 | 0.0368 | -0.004 | 0.847 | 0.719 | 0.919 | 0.921 | 0.793 | 0.164
O=C(c1cc(Cc2n[nH]c(=O)c3ccccc23)ccc1F)N1CCN(C(=O)C2CC2)CC1 [Olaparib] + CC1(C)CCC(CN2CCN(c3ccc(C(=O)NS(=O)(=O)c4ccc(NCC5CCOCC5)c([N+](=O)[O-])c4)c(Oc4cnc5[nH]ccc5c4)c3)CC2)=C(c2ccc(Cl)cc2)C1 [Venetoclax] (first compound max 10 µM, 7x7, partner max 1 µM) | -0.048 | -0.0439 | -0.0569 | -0.0472 | -0.0339 | -0.028 | -0.0549 | -0.0695 | -0.0413 | 0.0186 | -0.045 | -0.0524 | -0.0266 | -0.0353 | 0.166 | 0.0794 | 0.008 | 0.545 | 0.769 | 0.0963

Source: the supplement of paper PMC11061612
